For one assay, the system named is HS445. As to the kind of experiment: CellTiterGlo viability assay, HS445. To be noted: Hs 445, 72 h, read-out: IC50 HS445. Type of assay: cell-based. Here is the method:
(§1) In vitro viability assay were performed to assess the effects of compounds on cell viability in selected cell lines over ˜72 hrs using the CellTiterGlo (CTG, Promega-G7573) assay. The tests were performed in duplicates with treatment of compounds at 9 points, 3.16 folds titration in 96 well plates over ˜72 hrs. The compound starting concentrations were 198 μM. Cell viability assay using CellTiterGlo in 96-well plate were performed. Compound treatment 72 hrs, standard growth conditions, duplicates. Compounds were dissolved to 40 mM with thawed […]. Compounds were serially diluted at 3.16 fold in thawed DMSO, and warmed to 37° C. before being dissolved in media (2 μl+200 μl). After compounds were dissolved in media, media containing compounds were warmed to 37° C. in incubator and then compounds in media were added to cell plates (50 μl+50 μl) in duplicates. The compounds' final concentrations were from […] to 19.9 nM. All compound solubilities were checked and recorded again, then the plates were transferred to CO2 tissue culture incubator immediately and incubated for 3 days. DMSO final concentration is 0.5%.
Background: In ATP-based viability assays light output follows the ATP content of the culture.

Another assay concerns HepG2. As to the kind of experiment: CellTiterGlo viability assay, HepG2. In kind it is cell-based. To be noted: Homo sapiens, HepG2, 72 h, read-out: IC50 HepG2. Here is the method:
as §1

A further assay relates to SW620. As to the kind of experiment: CellTiterGlo viability assay, SW620. In kind it is cell-based. To be noted: Homo sapiens, SW-620, 72 h, read-out: IC50 SW620. As for the experimental part:
as §1

For assay [1], the system named is human cervix carcinoma HeLa cells. In words: Cell proliferation (Coulter count) assay, HeLa. In kind it is cell-based. The note with it: 120 h, cell count on day 5, read-out: absolute IC50, HeLa. In outline: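 Cells grown in DMEM with 10% FBS. HeLa seeded at 10 000 cells/well, compound added after 24 h, counted day 5; L1210 and CEM seeded at 60 000 cells/well with compound, counted after 48 h and 72 h respectively. IC50 is concentration halving proliferation by Coulter count.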

The subject of another assay is THP-1. In words: CellTiterGlo viability assay, THP-1. In kind it is cell-based. To be noted: Homo sapiens, THP-1, 72 h, read-out: IC50 THP-1. As for the experimental part: as §1
The next assay has as its system MOLT-4. As to the kind of experiment: CellTiterGlo viability assay, MOLT-4. The note with it: Homo sapiens, MOLT-4, 72 h, read-out: IC50 MOLT-4. Type of assay: cell-based. As for the experimental part:
as §1

A further assay deals with CCRFCEM. As to the kind of experiment: CellTiterGlo viability assay, CCRFCEM. Type of assay: cell-based. To be noted: Homo sapiens, CCRF-CEM, 72 h, read-out: IC50 CCRFCEM. In outline: (§2)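 Luminescent ATP-based readout (CellTiterGlo) followed a 72-hour incubation at 37 °C with compound. Final DMSO was 0.5%, and the dilution series ran from 198 μM to 19.9 nM over nine points.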

For the next assay, the system named is NCI-H929. In words: CellTiterGlo viability assay, NCI-H929. In kind it is cell-based. The note with it: Homo sapiens, NCI-H929, 72 h, read-out: IC50 NCI-H929. The method, boiled down: as §2
A further assay deals with MiaPaCa-2. In words: CellTiterGlo viability assay, MiaPaCa-2. To be noted: Homo sapiens, MIA PaCa-2, 72 h, read-out: IC50 MiaPaCa-2. In kind it is cell-based. Here is the method:
as §1

A further assay has as its system HT29. In words: CellTiterGlo viability assay, HT29. Type of assay: cell-based. The note with it: Homo sapiens, HT-29, 72 h, read-out: IC50 HT29. Here is the method:
as §1

The test system of the next assay is Z138. As to the kind of experiment: CellTiterGlo viability assay, Z138. In kind it is cell-based. To be noted: Homo sapiens, Z-138, 72 h, read-out: IC50 Z138. Here is the method:
as §1

The subject of the next assay is RPMI-8226. As to the kind of experiment: CellTiterGlo viability assay, RPMI-8226. The note with it: Homo sapiens, RPMI-8226, 72 h, read-out: IC50 RPMI-8226. Type of assay: cell-based, Human. In outline: as §2

pIC50: −log10 of the molar value.

What is called pIC50 is the negative decadic logarithm of the IC50, by convention in mol/L. In the case of `CC(C)C[C@H](NP(=O)(OC[C@H]1O[C@@H](n2c(Cl)nc3c(N)ncnc32)C(O)C1O)Oc1ccccc1)C(=O)OCc1ccccc1` (stereo partly drawn) [V, 5′-([(Benzyloxy-L-leucin-N-yl)-phenyl]-phosphatyl) 8-chloroadenosine], the pIC50 is 4.00 to 4.82 in the assay with HS445; 5.30 to 7.00 in the assay with HepG2; 5.30 to 7.00 in the assay with SW620; 5.30 to 7.00 in assay [1]; 5.30 to 7.00 with THP-1; 5.30 to 7.00 in the assay on MOLT-4. In addition, the pIC50 with CCRFCEM was 4.82 to 5.30; in the assay on NCI-H929, 5.30 to 7.00; with MiaPaCa-2, 5.30 to 7.00; with HT29 it was 5.30 to 7.00; with Z138 it was 5.30 to 7.00; in the assay on RPMI-8226, 5.30 to 7.00.

The record behind these values is patent US20190375778A1, “ADENOSINE DERIVATIVES FOR USE IN THE TREATMENT OF CANCER” (NuCana plc, priority 2016, published 2019).
